The target of data set [1] is T1, ATX (Homo sapiens, UniProt Q13822).
T1 construct: purchased Sino Biological 11308-H07H
Nature of the data set: Amplex Red assay: ATX inhibitory activity in vitro. To be noted: for IC50: Amplex Red assay; for IC50 / Inhibition of ATX enzymatic activity: in vitro; for % inhibition of ATX: at 100 μΜ, Table S1; for ATX activity, fold lower than that of TGZ: ratio of IC50. The data set is classed as biochemical. The method, then:
(§1) ATX inhibitory activity in vitro of examined compounds was assessed with the Amplex Red assay,[32]^,[35]^,[36] as recently published in detail.[37] The assay was done in Amplex Red Assay buffer (Tris 50 mM, CaCl2 5 mM, pH 8). Briefly, 50 μL of increasing concentrations of each compound were placed in separate wells of a black 96-well plate. […] 50 μL of the LPC-containing assay buffer (200 μM) were added to the wells and incubated for 30 min at 37°C to allow the enzyme to initially interact with its substrate. 50 μL of the detection mix (Amplex Red 200 μM, choline oxidase 0.4 U/mL, horseradish peroxidase 4 U/mL) were added to the plate wells. Fluorescence was measured in a Tecan M200 Fluorimeter using excitation at 530 nm and reading at 590 nm, every 5 min for 30 min. The velocity of the reaction and the remaining ATX activity were calculated at the linear phase of the reaction. Dose-response inhibition graphs were plotted with GraphPad Software.

The next data set deals with T2, PPARγ (Homo sapiens, UniProt P37231).
T2 construct: expressed in transfected cells; host or cells: HEK293T
T2 sequence (P37231 238-503 limits assumed): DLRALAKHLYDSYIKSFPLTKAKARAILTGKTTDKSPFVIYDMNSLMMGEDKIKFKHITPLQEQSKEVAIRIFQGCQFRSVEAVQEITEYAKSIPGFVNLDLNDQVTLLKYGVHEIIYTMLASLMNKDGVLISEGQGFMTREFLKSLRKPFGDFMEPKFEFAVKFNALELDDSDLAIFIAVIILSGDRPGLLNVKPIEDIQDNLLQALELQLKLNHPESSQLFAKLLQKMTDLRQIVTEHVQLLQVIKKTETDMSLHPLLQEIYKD
Nature of the data set: PPARγ Gal4 hybrid reporter gene assay. Type of data set: cell-based. The following applies: Gal4-hybrid reporter, HEK293T cells. Here is the method: All well-established assays were performed following straightforward methodology.[49] Plasmids pFA-CMV-hPPARα-LBD, pFA-CMV-hPPARγ-LBD and pFA-CMV-hPPARδ-LBD code for the hinge region and ligand binding domain of the canonical isoform of the respective nuclear receptor and were used to express the Gal4 hybrid receptors. pFR-Luc (Stratagene, La Jolla, CA, USA) and pRL-SV40 (Promega, Madison, WI, USA) were used as Gal4-responsive reporter and as internal control in the hybrid reporter gene assays, respectively. HEK293T cells were seeded in 96-well plates (3×10^4 cells/well). Before transfection, the medium was changed to Opti-MEM without supplements, and transient transfection with the plasmids pFR-Luc, pRL-SV40, and one pFA-CMV-NR-LBD clone was carried out using Lipofectamine LTX reagent (Invitrogen, Carlsbad, CA, USA) according to the manufacturer’s protocol. […] Normalisation of transfection efficiency and cell growth was performed by dividing firefly luminescence by Renilla luminescence and multiplying the result by 1000, yielding relative light units (RLU). Fold activation was obtained by dividing the mean RLU of the test compound by the mean RLU of the untreated control.

Data set [2] relates to choline oxidase and horseradish peroxidase. As to the kind of experiment: Interference with the 2nd and 3rd reaction of the Amplex Red assay. Type of data set: biochemical. The method, then: as §1
Figure S3. Kinetic analysis of ATX inhibition. Related to Figures 3 and 4
(B) Kinetics for the second (oxidation of choline catalysed by choline oxidase) and third reaction (the conversion of the
Amplex substrate to the fluorescent resorufin catalysed by horseradish peroxidase, HRP) of the Amplex Red Lyso-
phospholipase D assay for representative compounds (TGZ, 4, 5 and EL244). The first reaction includes the conversion of
LPC to LPA catalysed by ATX.
Kinetic graphs are indicative of three technical replicates. […]

A short description of data set [3]: Cytotoxicity in HepG2 hepatocytes. Type of data set: cell-based. To be noted: human, HepG2 cells.
Data set [4] is described as follows: AMP membrane permeability. Type of data set: in vitro ADME. The following applies: 10 μΜ.
Another data set addresses hERG (Homo sapiens, UniProt Q12809). Nature of the data set: hERG inhibition. Type of data set: biochemical.
Data set [5] is described as follows: Mouse metabolic clearance and half-life in vitro.
The next data set can be described thus: in vitro. The following applies: mouse.
The target of data set [6] is T1, ATX. Nature of the data set: Mode of ATX inhibition, Lineweaver-Burk plots (various LPC concentrations). The data set is classed as biochemical. The method, then: To determine the mode of inhibition of ATX, various concentrations of TGZ, compound 5 and EL244 were tested against various LPC concentrations. Specifically, TGZ was tested against 6.25, 12.5, 25, 50 and 100 μM LPC, compound 5 was tested against 3.125, 6.25, 12.5, 25, 50 and 100 μM LPC, while EL244 was tested against 25, 50, 100 and 150 μM LPC. Lineweaver–Burk graphs depicting the reciprocal of velocity (1/V) against the reciprocal of substrate concentration (1/S) were plotted with GraphPad Software.

Entries after “also recorded” stand apart in the source; their conditions may differ.

Sequence of hERG (Q12809 whole entry): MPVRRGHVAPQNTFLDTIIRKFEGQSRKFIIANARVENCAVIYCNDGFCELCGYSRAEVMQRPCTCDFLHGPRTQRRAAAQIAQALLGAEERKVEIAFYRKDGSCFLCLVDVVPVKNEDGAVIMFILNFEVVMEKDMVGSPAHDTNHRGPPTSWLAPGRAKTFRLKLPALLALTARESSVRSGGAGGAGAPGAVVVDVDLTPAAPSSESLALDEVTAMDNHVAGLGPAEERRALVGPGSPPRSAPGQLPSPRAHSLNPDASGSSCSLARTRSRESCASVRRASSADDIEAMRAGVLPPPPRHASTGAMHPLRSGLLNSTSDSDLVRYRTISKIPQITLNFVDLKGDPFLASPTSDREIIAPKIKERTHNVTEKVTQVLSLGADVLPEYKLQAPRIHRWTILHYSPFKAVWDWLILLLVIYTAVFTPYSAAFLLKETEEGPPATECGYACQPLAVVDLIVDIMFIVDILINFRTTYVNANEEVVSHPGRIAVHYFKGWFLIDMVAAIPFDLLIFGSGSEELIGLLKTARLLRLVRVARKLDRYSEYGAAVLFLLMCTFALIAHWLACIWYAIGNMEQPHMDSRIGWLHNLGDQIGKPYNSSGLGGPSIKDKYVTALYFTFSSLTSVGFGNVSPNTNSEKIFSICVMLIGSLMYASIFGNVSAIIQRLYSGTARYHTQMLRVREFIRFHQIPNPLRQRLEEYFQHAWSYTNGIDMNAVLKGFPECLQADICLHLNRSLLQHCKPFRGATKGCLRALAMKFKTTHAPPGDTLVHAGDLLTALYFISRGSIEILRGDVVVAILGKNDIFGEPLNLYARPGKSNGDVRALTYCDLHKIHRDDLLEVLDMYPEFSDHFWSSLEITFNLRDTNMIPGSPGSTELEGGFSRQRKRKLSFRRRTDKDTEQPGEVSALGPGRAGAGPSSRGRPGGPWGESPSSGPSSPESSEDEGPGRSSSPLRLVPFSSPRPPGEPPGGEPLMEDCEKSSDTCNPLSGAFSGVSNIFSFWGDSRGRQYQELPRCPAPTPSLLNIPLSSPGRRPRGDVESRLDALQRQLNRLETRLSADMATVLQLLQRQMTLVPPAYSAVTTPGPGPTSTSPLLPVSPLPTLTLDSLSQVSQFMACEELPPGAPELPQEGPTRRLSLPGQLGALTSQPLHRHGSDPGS

On to `COc1cc(-c2ccc(N=Nc3ccc4c(S(=O)(=O)O)cc(S(=O)(=O)O)c(N)c4c3O)c(OC)c2)ccc1N=Nc1ccc2c(S(=O)(=O)O)cc(S(=O)(=O)O)c(N)c2c1O` [CSB, Chicago Sky Blue 6B, reference compound], for which, at ATX [1], the half-maximal inhibitory concentration (IC50) came out at 1.6 µM and the “% inhibition of ATX” value is reported as “fully inhibited ATX activity”. Moreover, the “% inhibition of ATX” value at ATX [1] (listed as 425) is 99.21%.
Turning to `N#Cc1sc(NCCOc2ccc(/C=C3/SC(=O)NC3=O)cc2)nc1-c1ccc(F)cc1` [Compound 1, (E)-2-((2-(4-((2,4-dioxothiazolidin-5-ylidene)methyl)phenoxy)ethyl)amino)-4-(4-fluorophenyl)thiazole-5-carbonitrile], on ATX [1], the IC50 was 2 µM and the “ATX activity, fold lower than that of TGZ” value was found to be 4 fold.
As to `O=C1NC(=O)/C(=C\c2ccc(OCCN3CCN(C(=O)OCc4cc(Cl)cc(Cl)c4)CC3)cc2)S1` [Compound 2, 3,5-Dichlorobenzyl (E)-4-(2-(4-((2,4-dioxothiazolidin-5-ylidene)methyl)phenoxy)ethyl)piperazine-1-carboxylate], on ATX [1], the IC50 turned out to be 2 µM and the “ATX activity, fold lower than that of TGZ” value was found to be 4 fold.
Consider `Cc1c(C)c2c(c(C)c1O)CCC(C)(COc1ccc(/C=C3/SC(=O)N(Cc4ccc(F)cc4)C3=O)cc1)O2` (stereo not drawn) [Compound 3, (E)-3-(4-fluorobenzyl)-5-(4-((6-hydroxy-2,5,7,8-tetramethylchroman-2-yl)methoxy)benzylidene)thiazolidine-2,4-dione], for which the IC50 against ATX [1] came to 17.8 µM. That is a double-digit micromolar value.
With `N#Cc1sc(NCCOc2ccc(CC3SC(=O)NC3=O)cc2)nc1-c1ccc(F)cc1` (stereo not drawn) [Compound 4, 2-((2-(4-((2,4-dioxothiazolidin-5-yl)methyl)phenoxy)ethyl)amino)-4-(4-fluorophenyl)thiazole-5-carbonitrile], on PPARγ, the response was half-maximal at 1 µM (EC50) and the “PPARγ fold activ. (max. activation)” value is listed as 5.6 ± 0.5 fold. In addition, the “Interference on the 2nd and 3rd steps of the Amplex Red assay” value in [2] is “Minimal interference; also recorded: not involved at all in the second and third reaction”. In addition, 0.94 µM corresponded to half-maximal inhibition against ATX [1] (IC50).
`COC(=O)c1ccc2c(c1)NC(=O)/C2=C(\Nc1ccc(N(C)C(=O)CN2CCN(C)CC2)cc1)c1ccccc1` [Nintedanib, reference compound] came in with a half-maximal cytotoxic concentration (CC50) in data set [3] of 4 µM. The same compound came in with an AMP in [4] of 7.8e-07 cm/s. The compound further displayed an IC50 on hERG of 4 µM. In [5], this compound showed a microsomal CLint at 0.1 μM of 122 µL/min/mg. Moreover, the half-life at 0.1 μM in the data set “in vitro” stood at 58 min.
`O=C(CCN1CCN(C(=O)OCc2cc(Cl)cc(Cl)c2)CC1)c1ccc2[nH]c(=O)oc2c1` [PF-8380, reference compound] registered a 50% cytotoxic concentration (CC50) in [3] of over 100 µM. On hERG, this compound gave a half-maximal inhibitory concentration (IC50) of 0.5 µM. In data set [5], this compound came in with a half-life at 0.1 μM of under 10 min and a microsomal CLint at 0.1 μM of 766 µL/min/mg.
As for `CCc1ccc(CCOc2ccc(CC3SC(=O)NC3=O)cc2)nc1` (stereo not drawn) [PGZ, pioglitazone, reference compound], on ATX [1], the IC50 was over 100 µM and the “Inhibition of ATX enzymatic activity” value is reported as “not to inhibit ATX enzymatic activity”.
The corresponding values for `CN(CCOc1ccc(CC2SC(=O)NC2=O)cc1)c1ccccn1` (stereo not drawn) [RGZ, rosiglitazone, reference compound] are over 100 µM and “not to inhibit ATX enzymatic activity”.
In data set [3], `Cc1c(C)c2c(c(C)c1O)CCC(C)(COc1ccc(CC3SC(=O)NC3=O)cc1)O2` (stereo not drawn) [TGZ, troglitazone, reference compound] returned a 50% cytotoxic concentration (CC50) of 34 µM. In addition, the “Mode of ATX inhibition” value at ATX [6] was “non-competitive”. Besides, on ATX [1], the IC50 turned out to be 0.53 µM and the “% inhibition of ATX” value is given as “fully inhibited ATX activity”. In addition, on ATX [1] (listed as 1467), the “% inhibition of ATX” value stood at 99.17%.

These data come from publication PMC13198257, “An aerosolized dual-action autotaxin inhibitor-PPARγ agonist for the treatment of pulmonary fibrosis” (Cell Reports Medicine, 2026).
